Read-outs that look alike come from different tables or passages of the source.
Tests used:
[1] = biological target: T1, human liver glycogen phosphorylase a (HLGPa) (Homo sapiens, UniProt P06737); experiment: GPa activity assay, reverse direction (inorganic phosphate release from glucose-1-phosphate), human liver isoform; type: biochemical
T1 construct: made in house; host or cells: E. coli XL-1 Blue (pKK233-2) or Sf9 insect cells (pBlueBac III baculovirus)
T1 sequence (P06737 2-847 limits assumed): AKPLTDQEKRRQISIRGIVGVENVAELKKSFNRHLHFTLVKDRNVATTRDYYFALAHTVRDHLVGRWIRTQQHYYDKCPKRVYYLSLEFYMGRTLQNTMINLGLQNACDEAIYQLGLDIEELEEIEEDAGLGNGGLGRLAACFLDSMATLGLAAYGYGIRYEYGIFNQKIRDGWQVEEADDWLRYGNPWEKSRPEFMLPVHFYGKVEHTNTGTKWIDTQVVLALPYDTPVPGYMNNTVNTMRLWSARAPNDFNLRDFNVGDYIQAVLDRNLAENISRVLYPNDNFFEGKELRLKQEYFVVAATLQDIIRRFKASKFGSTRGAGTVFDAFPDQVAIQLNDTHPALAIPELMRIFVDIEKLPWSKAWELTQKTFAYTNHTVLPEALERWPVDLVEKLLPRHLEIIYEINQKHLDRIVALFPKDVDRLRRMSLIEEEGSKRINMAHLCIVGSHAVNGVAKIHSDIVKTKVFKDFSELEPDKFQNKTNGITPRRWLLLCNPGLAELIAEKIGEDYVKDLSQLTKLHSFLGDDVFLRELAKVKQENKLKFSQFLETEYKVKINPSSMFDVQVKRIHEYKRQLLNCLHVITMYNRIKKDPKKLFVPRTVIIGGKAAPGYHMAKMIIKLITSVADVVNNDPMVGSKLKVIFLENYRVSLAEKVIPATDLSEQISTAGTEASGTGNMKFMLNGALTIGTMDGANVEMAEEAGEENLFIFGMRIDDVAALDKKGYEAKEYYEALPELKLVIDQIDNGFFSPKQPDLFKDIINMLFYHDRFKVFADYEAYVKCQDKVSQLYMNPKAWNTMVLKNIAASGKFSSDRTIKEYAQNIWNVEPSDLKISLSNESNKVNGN
Procedure: (§1) All reactions are run in triplicate in 96-well microtiter plates and the change in absorbance due to formation of the reaction product is measured at the wavelength specified below in a MCC/340 MKII Elisa Reader (Lab Systems, Finland), connected to a Titertech Microplate Stacker (ICN Biomedical Co, Huntsville, Ala.).
(§2) Buffer B is at pH 7.2 and contains 50 mM HEPES, 100 mM KCl, 2.5 mM EGTA, 2.5 mM MgCl2 and 0.5 mM dithiothreitol. […] After a 20 minute incubation at room temperature, the absorbance is measured at 620 nm.

[2] = biological target: T2, human muscle glycogen phosphorylase a (HMGPa) (Homo sapiens, UniProt P11217); experiment: GPa activity assay, reverse direction (inorganic phosphate release from glucose-1-phosphate), human muscle isoform; type: biochemical
T2 construct: made in house; host or cells: E. coli strain XL-1 Blue (plasmid pKK233-2)
T2 sequence (P11217 2-842 limits assumed): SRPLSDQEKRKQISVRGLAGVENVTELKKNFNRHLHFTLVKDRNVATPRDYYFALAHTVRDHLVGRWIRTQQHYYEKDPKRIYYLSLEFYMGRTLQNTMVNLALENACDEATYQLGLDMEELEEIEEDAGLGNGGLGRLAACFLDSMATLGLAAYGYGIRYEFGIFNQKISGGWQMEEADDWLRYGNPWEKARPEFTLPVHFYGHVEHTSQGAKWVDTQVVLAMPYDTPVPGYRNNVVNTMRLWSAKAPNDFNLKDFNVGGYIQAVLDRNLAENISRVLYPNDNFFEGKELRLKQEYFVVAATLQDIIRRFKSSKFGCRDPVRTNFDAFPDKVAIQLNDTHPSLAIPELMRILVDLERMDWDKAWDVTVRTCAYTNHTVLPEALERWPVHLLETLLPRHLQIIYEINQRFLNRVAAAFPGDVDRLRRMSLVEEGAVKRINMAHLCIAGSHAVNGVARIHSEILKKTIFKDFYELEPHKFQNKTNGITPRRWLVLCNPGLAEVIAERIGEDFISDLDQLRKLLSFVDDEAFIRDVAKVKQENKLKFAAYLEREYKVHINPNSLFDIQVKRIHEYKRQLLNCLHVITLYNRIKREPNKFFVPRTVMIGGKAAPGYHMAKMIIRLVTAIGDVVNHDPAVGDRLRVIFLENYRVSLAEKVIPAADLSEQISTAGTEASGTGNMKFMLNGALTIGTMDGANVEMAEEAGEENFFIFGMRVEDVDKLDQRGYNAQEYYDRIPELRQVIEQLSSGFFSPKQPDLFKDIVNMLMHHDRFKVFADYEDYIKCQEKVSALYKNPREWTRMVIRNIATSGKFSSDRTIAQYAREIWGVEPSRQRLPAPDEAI
Procedure: as §1, §2

[3] = system: rabbit isolated heart; details: Liu et al., Cardiovasc. Res., 28:1057-1061, 1994; cited from earlier work
[4] = system: rabbit isolated heart; experiment: Cardioprotection (reduction of infarcted myocardium) in isolated, retrogradely perfused (Langendorff) rabbit heart after regional ischemia and reperfusion; design: species or system Male New Zealand White rabbits; details: for Infarct Area/Area-at-Risk (%IA/AAR): standard error in own column, control 63.9
From the text: Cardioprotection, as indicated by a reduction in infarcted myocardium, can be induced pharmacologically using adenosine receptor agonists in isolated, retrogradely perfused rabbit hearts as an in vitro model of myocardial ischemic preconditioning (Liu et al., Cardiovasc. Res., 28:1057-1061, 1994). […] The exact methodology is described below.
The protocol used for these experiments closely follows that described by Liu et al., Cardiovasc. Res., 28:1057-1061, 1994. Male New Zealand White rabbits (3-4 kg) are anesthetized with sodium pentobarbital (30 mg/kg, i.v.). After deep anesthesia is achieved (determined by the absence of an ocular blink reflex) the animal is intubated and ventilated with 100% O2 using a positive pressure ventilator. A left thoracotomy is performed, the heart exposed, and a snare (2-0 silk) is placed loosely around a branch of the left anterior descending coronary artery, approximately 2/3 of the distance towards the apex of the heart. The heart is removed from the chest and rapidly (<30 sec) mounted on a Langendorff apparatus. The heart is retrogradely perfused via the aorta in a non-recirculating manner with a modified Krebs solution (NaCl 118.5 mM, KCl 4.7 mM, Mg SO4 1.2 mM, KH2 PO4 1.2 mM, NaHCO3 24.8 mM, CaCl2 2.5 mM, and glucose 10 mM), at a constant pressure of 80 mmHg and a temperature of 37° C. […] Heart rate and left ventricular pressures are determined via a latex balloon which is inserted in the left ventricle and connected by stainless steel tubing to a pressure transducer. […] Perfusate flow rates are routinely determined throughout the experimental period. […]
At the end of the 120 min reperfusion period, the coronary artery snare is tightened, and a 0.5% suspension of fluorescent zinc cadmium sulfate particles ([…]) is perfused through the heart; this stains all of the myocardium, except that area at risk for infarct development (area-at-risk). […] The infarcted area (no stain) and the area-at-risk (no fluorescent particles) are calculated for each slice of left ventricle using a precalibrated image analyzer. […]

[5] = reverse direction assay, HLGPa, read-out: HLGPa IC50

For `CON(C)C(=O)[C@H](O)[C@H](Cc1ccccc1)NC(=O)c1cc2cc(Cl)ccc2[nH]1` [5-Chloro-1H-indole-2-carboxylic acid {(1S)-[(R)-hydroxy-(methoxy-methylcarbamoyl)-methyl]-2-phenyl-ethyl}-amide], the IC50 [1, 5] was 51 nM and the IC50 [2] was 110 nM.

With `CN(C)C(=O)[C@H](O)[C@H](Cc1ccccc1)NC(=O)c1cc2cc(Cl)ccc2[nH]1` [5-Chloro-1H-indole-2-carboxylic acid [(1S)-((R)-hydroxy-dimethylcarbamoyl-methyl)-2-phenyl-ethyl]-amide] the IC50 [1] was 108 nM and the IC50 [2] was 155 nM.

For `Nc1ccc(CCNc2ncnc3c2ncn3[C@@H]2O[C@H](CO)[C@@H](O)[C@H]2O)cc1` [APNEA, N^6-[2-(4-aminophenyl)ethyl]adenosine, reference compound], the “pharmacologically induced cardioprotection in the rabbit isolated heart” value [3] is given as “shown to pharmacologically induce cardioprotection” and the “Infarct Area/Area-at-Risk (%IA/AAR)” value ([4]; 500 nM, perfused 5 min, then 10 min drug-free, before 30 min ischemia and 120 min reperfusion, n=9) is given as 19.0%.

With `CN(CCO)C(=O)[C@H](O)[C@H](Cc1ccccc1)NC(=O)c1cc2cc(Cl)ccc2[nH]1` [5-Chloro-1H-indole-2-carboxylic acid ((1S)-{(R)-hydroxy-[(2-hydroxy-ethyl)methyl-carbamoyl]-methyl}-2-phenyl-ethyl)-amide] the IC50 [1, 5] was 152 nM and the IC50 [2] was 20 nM.

For `O=C(N[C@@H](Cc1ccccc1)C(=O)N1CC(O)C1)c1cc2cc(Cl)ccc2[nH]1` [5-chloro-1H-indole-2-carboxylic acid [(1S)-benzyl-2-(3-hydroxy-azetidin-1-yl)-2-oxo-ethyl]-amide], the “cardioprotection relative to the control group” value ([4]; 5 μM) was “significant cardioprotection” and the “Infarct Area/Area-at-Risk (%IA/AAR)” value ([4]; 5 μM, perfused from 30 min before 30 min regional ischemia through 120 min reperfusion, n=6) was 31.4%.
